Test results reported in US11147272B2, “Pyridone compounds and agricultural and horticultural fungicides comprising the same as active ingredients” (MITSUI CHEMICALS AGRO, INC., priority 2017, dated 2021).

Legend:
[1] = tested on: Puccinia recondita; assay: Test Example E: Brown rust on wheat; type: in vivo; conditions: for Test E control value class: Brown rust on wheat, class of control value
[2] = tested on: Phytophthora infestans; assay: whole plant or invertebrate; type: in vivo; conditions: for Test F control value class: Late blight on tomato, class of control value; for Test F control value: 250 ppm drug solution sprayed on test plant
[3] = tested on: Botrytis cinerea; assay: Test Example B: Gray mold on tomato; conditions: for Test B control value class: Gray mold on tomato, class of control value
[4] = tested on: Magnaporthe grisea; assay: whole plant or invertebrate; type: in vivo; conditions: for Test A control value class: Blast on rice, class of control value; for Test A control value: 250 ppm drug solution sprayed on test plant
[5] = tested on: Colletotrichum orbiculare; assay: Test Example H: Anthracnose on cucumber; conditions: for Test H control value class: Anthracnose on cucumber (Sagami Hanjiro), 250 ppm spray, 2.5 ml/pot, assessed 6 to 10 days after inoculation; for Test H control value: 250 ppm drug solution sprayed (2.5 ml/pot), cucumber Sagami Hanjiro, 6 to 10 days after inoculation
[6] = tested on: Blumeria graminis f. sp. hordei; assay: Test Example D: Powdery mildew on barley; conditions: Powdery mildew on barley; class of control value
[7] = tested on: Alternaia brassicicola; assay: Test Example C: Alternaria sooty spot on cabbage; type: in vivo; conditions: for Test C control value class: Alternaria sooty spot on cabbage, class of control value; for Test C control value: 250 ppm drug solution sprayed on test plant
From the text: Seeds of a test plant (cabbage variety: Shikidori) were planted and cultivated until the cotyledons extended.
<Control Value> Control value=100{1−(n/3)}

[8] = tested on: Plasmopara viticola; assay: Test Example G: Downy mildew on vine; conditions: for Test G control value class: Downy mildew on vine (Neomuscat), 250 ppm spray, 2.5 ml/pot, assessed 7 to 10 days after inoculation; for Test G control value: 250 ppm drug solution sprayed (2.5 ml/pot), grape Neomuscat, 7 to 10 days after inoculation
[9] = 250 ppm drug solution sprayed on test plant

Row | SMILES | Test E control value class [1] | Test F control value class [2] | Test B control value class [3] | Test A control value class [4] | Test H control value class [5] | Test D control value class [6] | Test C control value class [7] | Test G control value class [8] | Test F control value [2] | Test A control value [4] | Test H control value [5] | Test C control value [7] | Test G control value [8] | Test E control value [1, 9] | Test B control value [3, 9]
1 | CCn1c(-c2c(F)cc(F)cc2F)c(C(C)(O)C(C)C)cc(Cl)c1=O (racemic) [compound 106] | H (more than 50% control value) | H (more than 50% control value) | H (more than 50% control value) | H (more than 50% control value) | H (more than 50% control value) | H (more than 50% control value) | H (more than 50% control value) | H (more than 50% control value) |  |  |  |  |  |  | 
2 | CCn1c(-c2c(F)cc(F)cc2F)c(C(C)(OC)C(C)C)cc(Cl)c1=O (racemic) [compound 107] | H (more than 50% control value) | L (50% or less control value) | H (more than 50% control value) | H (more than 50% control value) | H (more than 50% control value) | H (more than 50% control value) | H (more than 50% control value) | H (more than 50% control value) |  |  |  |  |  |  | 
3 | CCn1c(-c2c(F)cc(OC)cc2F)c(C(C)(O)C(C)C)cc(Cl)c1=O (racemic) [compound 108] | H (more than 50% control value) | L (50% or less control value) | H (more than 50% control value) | H (more than 50% control value) | H (more than 50% control value) | H (more than 50% control value) | H (more than 50% control value) | H (more than 50% control value) |  |  |  |  |  |  | 
4 | CCn1c(-c2c(F)cc(OC)cc2F)c(C(C)(OC)C(C)C)cc(Cl)c1=O (racemic) [compound 110] | H (more than 50% control value) | L (50% or less control value) | H (more than 50% control value) | H (more than 50% control value) | H (more than 50% control value) | H (more than 50% control value) | H (more than 50% control value) | H (more than 50% control value) |  |  |  |  |  |  | 
5 | CCn1c(-c2c(F)cc(F)cc2F)c(C(O)C(C)(C)C)cc(Cl)c1=O (racemic) [compound 163] | H (more than 50% control value) | L (50% or less control value) | H (more than 50% control value) | H (more than 50% control value) | H (more than 50% control value) | H (more than 50% control value) | H (more than 50% control value) | H (more than 50% control value) |  |  |  |  |  |  | 
6 | CCn1c(-c2c(F)cc(F)cc2F)c(C(C)(CC(C)C)OC)cc(Cl)c1=O (racemic) [compound 164] | H (more than 50% control value) | L (50% or less control value) | H (more than 50% control value) | H (more than 50% control value) | L (50% or less control value) | H (more than 50% control value) | H (more than 50% control value) | H (more than 50% control value) |  |  |  |  |  |  | 
7 | CCn1c(-c2c(F)cc(OC)cc2F)c(C(C)(CC(C)C)OC)cc(Cl)c1=O (racemic) [compound 165] | H (more than 50% control value) | L (50% or less control value) | H (more than 50% control value) | H (more than 50% control value) | H (more than 50% control value) | H (more than 50% control value) | H (more than 50% control value) | H (more than 50% control value) |  |  |  |  |  |  | 
8 | CCn1c(-c2c(F)cc(F)cc2F)c(C(C)(F)C(C)C)cc(Cl)c1=O (racemic) [compound 166] | H (more than 50% control value) | H (more than 50% control value) | H (more than 50% control value) | H (more than 50% control value) | H (more than 50% control value) | H (more than 50% control value) | H (more than 50% control value) | H (more than 50% control value) |  |  |  |  |  |  | 
9 | CCn1c(-c2c(F)cc(OC)cc2F)c(C(C)(F)C(C)C)cc(Cl)c1=O (racemic) [compound 167] | H (more than 50% control value) | H (more than 50% control value) | H (more than 50% control value) | H (more than 50% control value) | H (more than 50% control value) | H (more than 50% control value) | H (more than 50% control value) | H (more than 50% control value) |  |  |  |  |  |  | 
10 | CCn1c(-c2c(F)cc(F)cc2F)c(C(OC)C(C)(C)C)cc(Cl)c1=O (racemic) [compound 168] | H (more than 50% control value) | L (50% or less control value) | H (more than 50% control value) | H (more than 50% control value) | L (50% or less control value) | H (more than 50% control value) | H (more than 50% control value) | L (50% or less control value) |  |  |  |  |  |  | 
11 | CCn1c(-c2c(F)cc(OC)cc2F)c(C(OC)C(C)(C)C)cc(Cl)c1=O (racemic) [compound 170] | H (more than 50% control value) | H (more than 50% control value) | H (more than 50% control value) | H (more than 50% control value) | H (more than 50% control value) | H (more than 50% control value) | H (more than 50% control value) | H (more than 50% control value) |  |  |  |  |  |  | 
12 | CCn1c(-c2c(F)cc(OC)cc2F)c(C(C)C(C)C)cc(Cl)c1=O (racemic) [compound 171] | H (more than 50% control value) | L (50% or less control value) | H (more than 50% control value) | H (more than 50% control value) | H (more than 50% control value) | H (more than 50% control value) | H (more than 50% control value) | H (more than 50% control value) |  |  |  |  |  |  | 
13 | CCn1c(-c2c(F)cc(F)cc2F)c(C(Cl)C(C)(C)C)cc(Cl)c1=O (racemic) [compound 172] | H (more than 50% control value) | H (more than 50% control value) | H (more than 50% control value) | H (more than 50% control value) | H (more than 50% control value) | H (more than 50% control value) | H (more than 50% control value) | H (more than 50% control value) |  |  |  |  |  |  | 
14 | CCCc1ccc(=O)n(C)c1-c1ccc(OC)cc1C [compound 425] |  |  |  |  |  |  |  |  | L (50% or less control value) | H (more than 50% control value) | H (more than 50% control value) | L (50% or less control value) | L (50% or less control value) |  | 
15 | C=Cc1cc(Cl)c(=O)n(CC)c1-c1c(F)cc(F)cc1F [compound 517] |  |  |  |  |  |  |  |  | L (50% or less control value) | L (50% or less control value) | H (more than 50% control value) | H (more than 50% control value) | H (more than 50% control value) |  | 
16 | CCn1c(-c2c(F)cc(F)cc2F)c(C(C)OC)cc(Cl)c1=O (stereo not shown) [compound 519] |  |  |  |  |  |  |  |  | L (50% or less control value) | H (more than 50% control value) | H (more than 50% control value) | H (more than 50% control value) | H (more than 50% control value) | H (more than 50% control value) | H (more than 50% control value)
